Data reported in PMC8102066 (eLife, 2021).
“And” between values parts separate entries of the source, which are not always exact repeats. Equal values may be shown once. Read-outs that look alike come from different tables or passages of the source.

Experiments:
[1] = target: T1, mGluR3-3xTM4 (Rattus norvegicus, UniProt P31422, F690A/G694A/S686A); assay: Inter-LBD FRET (N-terminal SNAP-tags), live cells; settings: for FRET response amplitude: mGluR3-3xTM4, inter-LBD FRET
[2] = target: T2, mGluR3-I788A (Rattus norvegicus, UniProt P31422, I788A); assay: Calcium imaging in HEK 293 T cells; format: cell-based; design: we performed calcium imaging experiments with mutations in the full-length mGluR2 background; expressed in transfected cells; host or cells: HEK 293 T; Calcium response amplitude: scale not given here; settings: for Calcium response amplitude: mGluR3-I788A
T2 sequence (P31422 23-879 I788A): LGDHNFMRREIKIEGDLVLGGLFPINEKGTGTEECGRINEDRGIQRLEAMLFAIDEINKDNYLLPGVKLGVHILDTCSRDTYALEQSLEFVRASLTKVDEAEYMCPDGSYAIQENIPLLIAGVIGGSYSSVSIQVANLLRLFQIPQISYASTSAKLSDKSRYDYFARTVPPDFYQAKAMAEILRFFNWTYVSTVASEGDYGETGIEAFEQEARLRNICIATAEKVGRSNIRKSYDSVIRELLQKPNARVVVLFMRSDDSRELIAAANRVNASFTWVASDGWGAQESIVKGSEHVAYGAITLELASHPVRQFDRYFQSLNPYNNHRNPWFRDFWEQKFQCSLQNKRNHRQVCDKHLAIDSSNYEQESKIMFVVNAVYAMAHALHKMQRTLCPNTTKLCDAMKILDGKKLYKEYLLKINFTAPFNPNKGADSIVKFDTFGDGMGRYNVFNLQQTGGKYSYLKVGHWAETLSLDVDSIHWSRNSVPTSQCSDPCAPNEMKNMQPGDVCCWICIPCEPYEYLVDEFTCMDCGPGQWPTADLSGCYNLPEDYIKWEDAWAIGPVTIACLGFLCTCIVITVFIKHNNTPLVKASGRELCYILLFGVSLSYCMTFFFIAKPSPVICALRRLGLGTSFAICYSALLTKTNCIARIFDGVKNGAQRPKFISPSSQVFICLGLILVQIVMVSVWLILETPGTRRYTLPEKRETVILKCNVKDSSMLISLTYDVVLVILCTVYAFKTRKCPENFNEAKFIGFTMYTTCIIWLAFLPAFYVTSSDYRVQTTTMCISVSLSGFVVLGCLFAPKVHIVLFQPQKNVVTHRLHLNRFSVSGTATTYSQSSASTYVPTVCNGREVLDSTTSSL
Procedure: Approximately 30 ROIs were analyzed per movie.

[3] = target: mGluR3-S686A (Rattus norvegicus, UniProt P31422, S686A); assay: Calcium imaging in HEK 293 T cells
Sequence of mGluR3-S686A (P31422 23-879 S686A): as the sequence (P31422 23-879 I788A) above, with S664A, A766I counted along it

[4] = target: mGluR3-C127A-3xTM4 (Rattus norvegicus, UniProt P31422, C127A/F690A/G694A/S686A); assay: SiMPull subunit counting in the presence of ligands; settings: SNAP-mGluR3-C127A-3xTM4 in presence of the ligand; single replicates per experiment day
Sequence of mGluR3-C127A-3xTM4 (P31422 23-879 C127A/S686A/F690A/G694A): as the sequence (P31422 23-879 I788A) above, with C105A, S664A, F668A, G672A, A766I counted along it

[5] = target: mGluR2-3xTM4 (Rattus norvegicus, UniProt P31421, A677S/A681F/A685G); assay: GIRK channel whole cell patch clamp in HEK 293 T cells
Sequence of mGluR2-3xTM4 (Rattus norvegicus, UniProt P31421, A677S/A681F/A685G) (P31421 19-872 A677S/A681F/A685G): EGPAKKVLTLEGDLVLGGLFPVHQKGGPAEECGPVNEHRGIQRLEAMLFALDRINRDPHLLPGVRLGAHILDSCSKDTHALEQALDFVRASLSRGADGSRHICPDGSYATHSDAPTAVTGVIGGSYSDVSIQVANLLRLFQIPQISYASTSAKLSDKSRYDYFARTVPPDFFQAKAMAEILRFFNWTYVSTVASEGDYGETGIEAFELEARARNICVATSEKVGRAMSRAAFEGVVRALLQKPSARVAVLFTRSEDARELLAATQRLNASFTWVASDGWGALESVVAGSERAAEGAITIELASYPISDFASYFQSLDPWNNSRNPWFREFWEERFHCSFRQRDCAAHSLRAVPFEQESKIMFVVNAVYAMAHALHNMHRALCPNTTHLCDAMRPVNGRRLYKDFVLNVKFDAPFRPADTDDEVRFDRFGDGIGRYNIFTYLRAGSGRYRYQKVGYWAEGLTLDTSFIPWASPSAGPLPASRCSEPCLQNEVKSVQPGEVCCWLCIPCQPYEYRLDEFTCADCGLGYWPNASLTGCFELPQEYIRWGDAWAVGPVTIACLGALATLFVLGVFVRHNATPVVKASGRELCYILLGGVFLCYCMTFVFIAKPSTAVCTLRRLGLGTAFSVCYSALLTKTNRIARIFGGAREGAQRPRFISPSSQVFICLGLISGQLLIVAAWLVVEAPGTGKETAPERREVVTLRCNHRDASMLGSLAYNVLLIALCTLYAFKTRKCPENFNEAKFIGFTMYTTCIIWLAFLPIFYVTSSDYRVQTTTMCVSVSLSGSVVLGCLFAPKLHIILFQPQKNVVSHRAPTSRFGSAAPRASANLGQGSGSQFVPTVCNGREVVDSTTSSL

[6] = target: T1, mGluR3-3xTM4; assay: as above; settings: for GIRK current amplitude: mGluR3 3xTM4
[7] = target: T3, mGluR2-3xTM4 (Rattus norvegicus, UniProt P31421, A677S/A681F/A685G/INS660ASEIGTGFPFDPHYVEVLGERMHYVDVGPRDGTPVLFLHGNPTSSYVWRNIIPHVAPTHRCIAPDLIGMGKSDKPDLGYFFDDHVRFMDAFIEALGLEEVVLVIHDWGSALGFHWAKRNPERVKGIAFMEFIRPIPTWDEWPEFARETFQAFRTTDVGRKLIIDQNVFIEGTLPMGVVRPLTEVEMDHYREPFLNPVDREPLWRFPNELPIAGEPANIVALVEEYMDWLHQSPVPKLLFWGTPGVLIPPAEAARLAKSLPNCKAVDIGPGLNLLQEDNPDLIGSEIARWLSTLEISGLE); assay: Inter-TMD FRET sensor (HaloTag in ICL2), live cells; format: cell-based
T3 construct: expressed in transfected cells; host or cells: HEK 293T
T3 sequence (P31421 with tags, fused parts or gaps with the stated changes): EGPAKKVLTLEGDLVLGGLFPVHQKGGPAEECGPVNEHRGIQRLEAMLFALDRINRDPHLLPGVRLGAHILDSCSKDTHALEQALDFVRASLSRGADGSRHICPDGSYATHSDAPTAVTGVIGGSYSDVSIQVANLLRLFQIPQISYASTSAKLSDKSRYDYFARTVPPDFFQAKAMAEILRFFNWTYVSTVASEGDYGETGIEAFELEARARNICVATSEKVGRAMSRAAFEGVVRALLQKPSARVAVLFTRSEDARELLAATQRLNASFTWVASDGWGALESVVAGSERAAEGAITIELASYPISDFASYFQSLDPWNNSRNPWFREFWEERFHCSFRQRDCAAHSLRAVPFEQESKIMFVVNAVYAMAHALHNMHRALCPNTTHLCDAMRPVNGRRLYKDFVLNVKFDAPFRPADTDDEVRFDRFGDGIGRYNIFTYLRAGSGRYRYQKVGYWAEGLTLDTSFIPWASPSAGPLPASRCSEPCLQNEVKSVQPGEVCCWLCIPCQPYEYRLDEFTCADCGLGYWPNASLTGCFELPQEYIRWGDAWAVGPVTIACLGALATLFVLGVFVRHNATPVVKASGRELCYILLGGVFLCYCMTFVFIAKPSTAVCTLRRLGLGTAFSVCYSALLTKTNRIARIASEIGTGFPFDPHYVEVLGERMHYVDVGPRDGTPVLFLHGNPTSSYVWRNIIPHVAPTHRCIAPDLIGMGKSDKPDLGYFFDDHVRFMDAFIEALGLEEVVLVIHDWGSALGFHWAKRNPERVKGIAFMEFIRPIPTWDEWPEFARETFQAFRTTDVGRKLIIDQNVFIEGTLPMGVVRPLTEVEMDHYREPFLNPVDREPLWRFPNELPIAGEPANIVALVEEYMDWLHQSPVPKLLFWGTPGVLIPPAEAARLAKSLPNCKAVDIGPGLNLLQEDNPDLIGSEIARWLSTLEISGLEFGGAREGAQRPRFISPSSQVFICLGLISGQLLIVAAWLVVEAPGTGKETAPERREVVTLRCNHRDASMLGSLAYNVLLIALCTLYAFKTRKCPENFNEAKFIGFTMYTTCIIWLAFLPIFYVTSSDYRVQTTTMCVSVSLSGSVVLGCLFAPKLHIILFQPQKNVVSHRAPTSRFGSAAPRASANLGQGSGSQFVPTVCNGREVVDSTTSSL

[8] = target: T2, mGluR3-I788A; assay: as above; format: cell-based; design: expressed in transfected cells; host or cells: HEK 293 T; FRET response amplitude: scale not given here; settings: for FRET response amplitude: inter-TMD FRET
Excerpt: Next, we asked how perturbing the TM6 interface would alter the conformational dynamics detected by our TMD FRET sensors.

[9] = target: mGluR3 (Rattus norvegicus, UniProt P31422); assay: Inter-LBD FRET (N-terminal SNAP-tags), live cells; settings: for FRET response amplitude: mGluR3, inter-LBD FRET
Sequence of mGluR3 (P31422 23-879): as the sequence (P31422 23-879 I788A) above, with A766I counted along it

[10] = target: T4, mGluR2-C121A-3xTM4 (Rattus norvegicus, UniProt P31421, A677S/A681F/A685G/C121A); assay: SiMPull subunit counting in the presence of ligands
T4 construct: expressed in transfected cells; host or cells: HEK 293 T (detergent lysate, pulled down by anti-HA antibody)
T4 sequence (P31421 19-872 C121A/A677S/A681F/A685G): as the sequence (P31421 19-872 A677S/A681F/A685G) above, with C103A counted along it

[11] = target: mGluR3-G694A (Rattus norvegicus, UniProt P31422, G694A); assay: Calcium imaging in HEK 293 T cells; settings: for Calcium response amplitude: mGluR3-G694A
Sequence of mGluR3-G694A (P31422 23-879 G694A): as the sequence (P31422 23-879 I788A) above, with G672A, A766I counted along it

[12] = target: T5, mGluR2-C121A-3xTM4-I779A (Rattus norvegicus, UniProt P31421, A677S/A681F/A685G/C121A/I779A); assay: SiMPull subunit counting in the presence of ligands; settings: SNAP-mGluR2-C121A-3xTM4-I779A in presence of the ligand; single replicates per experiment day
T5 construct: expressed in transfected cells; host or cells: HEK 293 T (detergent lysate, pulled down by anti-HA antibody)
T5 sequence (P31421 19-872 C121A/A677S/A681F/A685G/I779A): as the sequence (P31421 19-872 A677S/A681F/A685G) above, with C103A, I761A counted along it

[13] = target: mGluR3-F690A (Rattus norvegicus, UniProt P31422, F690A); assay: Calcium imaging in HEK 293 T cells; settings: for Calcium response amplitude: mGluR3-F681A
Sequence of mGluR3-F690A (P31422 23-879 F690A): as the sequence (P31422 23-879 I788A) above, with F668A, A766I counted along it

[14] = read-out: Glutamate EC50, LBD FRET, normalized to saturating (1 mM) glutamate, unit inferred
[15] = read-out: Glutamate EC50 (micromolar), calcium imaging, Fig 3F source data
[16] = read-out: Glutamate EC50, calcium imaging, normalized to saturating (1 mM) glutamate

T1 sequence (P31422 23-879 S686A/F690A/G694A): as the sequence (P31422 23-879 I788A) above, with S664A, F668A, G672A, A766I counted along it

N[C@@H](CCC(=O)O)C(=O)O [glutamate]
FRET response amplitude ([1]; Glutamate 1 nM): 0.00
FRET response amplitude ([1]; Glutamate 10 nM): 0.00
FRET response amplitude ([1]; Glutamate 1 uM): 0.63 and 0.58
FRET response amplitude ([1]; Glutamate 3 uM): 0.78 and 0.90
FRET response amplitude ([1]; Glutamate 10 uM): 0.99 and 0.96 and 1.05
FRET response amplitude ([1]; Glutamate 1 mM): 1.00
EC50 [1, 14]: 0.67 ± 0.05 µM
Calcium response amplitude ([2]; Glutamate 10 nM): 0.00
Calcium response amplitude ([2]; Glutamate 1 uM): 0.60 and 0.66 and 0.55
Calcium response amplitude ([2]; Glutamate 10 uM): 0.97 and 1.00 and 0.86
Calcium response amplitude ([2]; Glutamate 100 uM): 1.00
Calcium response amplitude ([2]; Glutamate 1 mM): 1.00
EC50 ([2]; read-out: Glutamate EC50, calcium imaging, normalized to saturating (1 mM) glutamate, unit inferred): 10.43 ± 0.1 µM
EC50 [3, 15]: 5.11 µM
EC50 [3, 16]: 5.12 ± 0.06 µM
% Dimerization [4]: 75.71% and 66.43% and 55.31% and 68.06% and 59.35% and 70.85%
GIRK current amplitude ([5]; Glutamate 10 nM): 0.000
GIRK current amplitude ([5]; Glutamate 100 uM): 0.955 and 1.148 and 1.101
GIRK current amplitude ([5]; Glutamate 1 mM): 1.000
GIRK current amplitude ([6]; Glutamate 10 nM): 0.000
GIRK current amplitude ([6]; Glutamate 10 uM): 0.695 and 0.866
GIRK current amplitude ([6]; Glutamate 100 uM): 1.078 and 0.767 and 0.806
GIRK current amplitude ([6]; Glutamate 1mM): 1.000
EC50 ([6]; read-out: Glutamate EC50, GIRK activation, normalized to saturating (1 mM) glutamate, unit inferred): 1.02 ± 0.17 µM
FRET response amplitude ([7]; Glutamate 10 nM): 0.00
FRET response amplitude ([7]; Glutamate 100 nM): 0.0446
FRET response amplitude ([7]; Glutamate 1 uM): 0.14 and 0.10 and 0.11
FRET response amplitude ([7]; Glutamate 10 uM): 0.89 and 0.71
FRET response amplitude ([7]; Glutamate 100 uM): 1.00
FRET response amplitude ([7]; Glutamate 1 mM): 1.00
FRET response amplitude ([8]; Glutamate 10 nM): 0.00
FRET response amplitude ([8]; Glutamate 1 uM): 0.60 and 0.66 and 0.55
FRET response amplitude ([8]; Glutamate 10 uM): 0.97 and 1.00 and 0.86
FRET response amplitude ([8]; Glutamate 100 uM): 1.00
FRET response amplitude ([8]; Glutamate 1 mM): 1.00
EC50 ([8]; read-out: Glutamate EC50, inter-TMD FRET, normalized to saturating (1 mM) glutamate, unit inferred): 0.66 ± 0.05 µM
FRET response amplitude ([9]; Glutamate 1 nM): 0.00
FRET response amplitude ([9]; Glutamate 10 nM): 0.00
FRET response amplitude ([9]; Glutamate 1 uM): 0.66 and 0.53
FRET response amplitude ([9]; Glutamate 3 uM): 1.00 and 0.63
FRET response amplitude ([9]; Glutamate 10 uM): 1.00 and 0.86
FRET response amplitude ([9]; Glutamate 100 uM): 1.00
EC50 [9, 14]: 0.64 ± 0.1 µM
% Dimerization ([10]; SNAP-mGluR2-C121A-3xTM4 in presence of the ligand, single replicates per experiment day): 89.26% and 88.28% and 81.34% and 81.93% and 82.70% and 80.09%
effect of ligand on dimerization (SiMPull) ([10]; saturating concentration): clear increase in dimerization
Calcium response amplitude ([11]; Glutamate 10 nM): 0.00
Calcium response amplitude ([11]; Glutamate 5 uM): 0.50 and 0.59 and 0.67
Calcium response amplitude ([11]; Glutamate 10 uM): 0.98
Calcium response amplitude ([11]; Glutamate 100 uM): 1.00
Calcium response amplitude ([11]; Glutamate 1 mM): 1.00
EC50 [11, 15]: 4.65 µM
EC50 [11, 16]: 4.66 ± 0.03 µM
% Dimerization [12]: 44.05% and 34.78% and 55.93% and 49.13% and 47.14% and 45.12%
Calcium response amplitude ([13]; Glutamate 10 nM): 0.00
Calcium response amplitude ([13]; Glutamate 100 nM): 0.00
Calcium response amplitude ([13]; Glutamate 3 uM): 0.33 and 0.27
Calcium response amplitude ([13]; Glutamate 10 uM): 0.40 and 0.44 and 0.57 and 0.58
Calcium response amplitude ([13]; Glutamate 100 uM): 1.00 and 0.86
Calcium response amplitude ([13]; Glutamate 1 mM): 1.00
EC50 [13, 16]: 9.59 ± 0.06 µM
